Results reported in ChEMBL document CHEMBL3880428, “Sulfonamide derivative having PGD2 receptor antagonistic activity” (2012).

What was measured:
Assay type in all cases: cell-based
[1] = system: HEK293; experiment: Selectivity ratio of IC50 for PGD2 receptor in human platelets to IC50 for human EP3 receptor expressed in HEK293 cells by cAMP accumulation assay
[2] = system: HEK293; experiment: Selectivity ratio of IC50 for PGD2 receptor in human platelets to IC50 for human EP4 receptor expressed in HEK293 cells by cAMP accumulation assay
[3] = system: HEK293; experiment: Selectivity ratio of IC50 for PGD2 receptor in human platelets to IC50 for human EP1 receptor expressed in HEK293 cells by cAMP accumulation assay
[4] = system: HEK293; experiment: Selectivity ratio of IC50 for PGD2 receptor in human platelets to IC50 for human FP receptor expressed in HEK293 cells by cAMP accumulation assay
[5] = system: HEK293; experiment: Selectivity ratio of IC50 for PGD2 receptor in human platelets to IC50 for human TP receptor expressed in HEK293 cells by cAMP accumulation assay
[6] = system: HEK293; experiment: Selectivity ratio of IC50 for PGD2 receptor in human platelets to IC50 for human EP2 receptor expressed in HEK293 cells by cAMP accumulation assay
[7] = system: HEK293; experiment: Selectivity ratio of IC50 for PGD2 receptor in human platelets to IC50 for human IP receptor expressed in HEK293 cells by cAMP accumulation assay

Measured: Ratio IC50

CCCNC(=O)c1ccc(N2CCN(S(=O)(=O)c3ccc(OC(C)C)cc3)CC2)cc1OCC(=O)O
> 20: [1] | [2] | [3] | [4] | [5] | [6] | [7]

CC(C)Oc1ccc(S(=O)(=O)N2CC=C(c3ccc(Cl)c(OCC(=O)O)c3)CC2)cc1
> 20: [1] | [2] | [3] | [4] | [5] | [6] | [7]

CC(C)Oc1ccc(S(=O)(=O)N2CCN(c3ccc(C(=O)Nc4nncs4)c(OCC(=O)O)c3)CC2)cc1
> 20: [1] | [2] | [3] | [4] | [5] | [6] | [7]

CC(C)Oc1ccc(S(=O)(=O)N2CCN(c3ccc(Cl)c(OCC(=O)O)c3)CC2)cc1
> 20: [1] | [2] | [3] | [4] | [5] | [6] | [7]

CC(C)Oc1ccc(S(=O)(=O)N2CCN(c3ccc(C(=O)Nc4nc5ccccc5[nH]4)c(OCC(=O)O)c3)CC2)cc1
> 20: [1] | [2] | [3] | [4] | [5] | [6] | [7]

CC(C)Oc1ccc(S(=O)(=O)N2CCN(c3cc(OCC(=O)O)cc(-c4ccoc4)c3)CC2)cc1
> 20: [1] | [2] | [3] | [4] | [5] | [6] | [7]

CC(C)Oc1ccc(S(=O)(=O)N2CCC(Oc3ccc(F)cc3CCC(=O)O)CC2)cc1
> 20: [1] | [2] | [3] | [4] | [5] | [6] | [7]

CC(C)Oc1ccc(S(=O)(=O)N2CCN(c3ccc(-c4ncco4)c(OCC(=O)O)c3)CC2)cn1
> 20: [1] | [2] | [3] | [4] | [5] | [6] | [7]

COc1cccc(OC2CCN(S(=O)(=O)c3ccc(OC(C)C)cc3)CC2)c1CCC(=O)O
> 20: [1] | [2] | [3] | [4] | [5] | [6] | [7]

CC(C)Oc1ccc(S(=O)(=O)N2CCN(c3ccc(NC(=O)c4ccno4)c(OCC(=O)O)c3)CC2)cc1
> 20: [1] | [2] | [3] | [4] | [5] | [6] | [7]

CC(C)Oc1ccc(S(=O)(=O)N2CCN(c3ccc(C#N)c(OCC(=O)O)c3)CC2)cc1
> 20: [1] | [2] | [3] | [4] | [5] | [6] | [7]

CC(C)Oc1ccc(S(=O)(=O)N2CCN(c3cc(Br)cc(OCC(=O)O)c3)CC2)cc1
> 20: [1] | [2] | [3] | [4] | [5] | [6] | [7]

Cc1cc(C(=O)Nc2ccc(N3CCN(S(=O)(=O)c4ccc(OC(C)C)cc4)CC3)cc2OCC(=O)O)no1
> 20: [1] | [2] | [3] | [4] | [5] | [6] | [7]

CC(C)Oc1ccc(S(=O)(=O)N2CCN(c3cc(OCC(=O)O)cc(-c4cccs4)c3)CC2)cc1
> 20: [1] | [2] | [3] | [4] | [5] | [6] | [7]

CC(C)Oc1ccc(S(=O)(=O)N2CCN(c3ccc(-c4ccccc4)c(OCC(=O)O)c3)CC2)cc1
> 20: [1] | [2] | [3] | [4] | [5] | [6] | [7]

CC(=O)c1ccc(N2CCN(S(=O)(=O)c3ccc(OC(C)C)cc3)CC2)cc1OCC(=O)O
> 20: [1] | [2] | [3] | [4] | [5] | [6] | [7]

COCC#Cc1cc(OCC(=O)O)cc(N2CCN(S(=O)(=O)c3ccc(OC(C)C)cc3)CC2)c1
> 20: [1] | [2] | [3] | [4] | [5] | [6] | [7]

CC(C)Oc1ccc(S(=O)(=O)N2CCN(c3ccc(C(N)=O)c(OCC(=O)O)c3)CC2)cc1
> 20: [1] | [2] | [3] | [4] | [5] | [6] | [7]

CC(C)Oc1ccc(S(=O)(=O)N2CCN(c3cc(OCC(=O)O)cc(-c4ccccc4)c3)CC2)cc1
> 20: [1] | [2] | [3] | [4] | [5] | [6] | [7]

CC(C)Oc1ccc(S(=O)(=O)N2CCN(c3ccc([N+](=O)[O-])c(NCC(=O)O)c3)CC2)cc1
> 20: [1] | [2] | [3] | [4] | [5] | [6] | [7]

CC(C)Oc1ccc(S(=O)(=O)N2CCN(c3cccc(OCC(=O)O)n3)CC2)cc1
> 20: [1] | [2] | [3] | [4] | [5] | [6] | [7]

CC(C)Oc1ccc(S(=O)(=O)N2CCN(c3ccc(Cl)c(OCC(=O)O)c3)CC2)cc1F
> 20: [1] | [2] | [3] | [4] | [5] | [6] | [7]

CC(C)Oc1ccc(S(=O)(=O)N2CCN(c3ccc([N+](=O)[O-])c(OCC(=O)O)c3)CC2)cc1
> 20: [1] | [2] | [3] | [4] | [5] | [6] | [7]

CC(C)Oc1ccc(S(=O)(=O)N2CCN(c3ccc(C(=O)Nc4ccccc4)c(OCC(=O)O)c3)CC2)cc1
> 20: [1] | [2] | [3] | [4] | [5] | [6] | [7]

COc1cccc(OC2CCN(S(=O)(=O)c3ccc(OC(C)C)cc3)CC2)c1/C=C/C(=O)O
> 20: [1] | [2] | [3] | [4] | [5] | [6] | [7]

CC(C)Oc1ccc(S(=O)(=O)N2CCN(c3ccc(Cl)c(OCC(=O)O)c3)CC2)cn1
> 20: [1] | [2] | [3] | [4] | [5] | [6] | [7]

CC(C)Oc1ccc(S(=O)(=O)N2CCN(c3cc(F)cc(OCC(=O)O)c3)CC2)cc1
> 20: [1] | [2] | [3] | [4] | [5] | [6] | [7]

CC(C)Oc1ccc(S(=O)(=O)N2CCN(c3ccc(-c4ccco4)c(OCC(=O)O)c3)CC2)cc1
> 20: [1] | [2] | [3] | [4] | [5] | [6] | [7]

CC(C)Oc1ccc(S(=O)(=O)N2CCN(c3ccc(OCc4ccccc4)c(OCC(=O)O)c3)CC2)cc1
> 20: [1] | [2] | [3] | [4] | [5] | [6] | [7]

Cc1ccc(N2CCN(S(=O)(=O)c3ccc(OC(C)C)cc3)CC2)cc1OCC(=O)O
> 20: [1] | [2] | [3] | [4] | [5] | [6] | [7]

Cc1cc(OCC(=O)O)cc(N2CCN(S(=O)(=O)c3ccc(OC(C)C)cc3)CC2)c1
> 20: [1] | [2] | [3] | [4] | [5] | [6] | [7]

CC(C)Oc1ccc(S(=O)(=O)N2CCC(Oc3ccccc3/C=C/C(=O)O)CC2)cc1
> 20: [1] | [2] | [3] | [4] | [5] | [6] | [7]

CC(C)NC(=O)Nc1ccc(N2CCN(S(=O)(=O)c3ccc(OC(C)C)cc3)CC2)cc1OCC(=O)O
> 20: [1] | [2] | [3] | [4] | [5] | [6] | [7]

CC(C)Oc1ccc(S(=O)(=O)N2CCC(c3ccc(Cl)c(OCC(=O)O)c3)CC2)cc1
> 20: [1] | [2] | [3] | [4] | [5] | [6] | [7]
